Measurements as given in patent publication US20230364180A1, “COMPOSITION FOR IMPROVING MILD COGNITIVE IMPAIRMENT AND METHOD FOR IMPROVING MILD COGNITIVE IMPAIRMENT” (TOKAI BUSSAN CO., LTD., priority 2019, published 2023).

Key:
[1] = stated as known; cited from earlier work
[2] = Proteolytic action on target protein by hydroxyl radical (FIG. 2A); type: biochemical; details: prevention of degradation of target protein
Excerpt: FIG. 2A is a hydroxyl radical, in which 1 is untreated target protein, 2 is no antioxidant added, 3 is IMDP added, 4 is vitamin C added, 5 is ferulic acid added, 6 is IMDP+vitamin C+ferulic acid added; and […]

[3] = Proteolytic action on target protein by peroxynitrite radical (FIG. 2B); type: biochemical; details: prevention of degradation of target protein
[4] = stated as known; cited from earlier work; remark: listed apart in the source

Compound: CC1=C(/C=C/C(C)=C/C=C/C(C)=C/C=C/C=C(C)/C=C/C=C(C)/C=C/C2=C(C)C(=O)[C@@H](O)CC2(C)C)C(C)(C)C[C@H](O)C1=O [astaxanthin]
- antioxidant activity against hydroxyl radicals (known) [1]: strong

Compound: COc1cc(/C=C/C(=O)O)ccc1O [ferulic acid]
- antioxidant activity against hydroxyl radicals [2]: strong

Compound: O=C1O[C@H]([C@@H](O)CO)C(O)=C1O [vitamin C]
- antioxidant activity against peroxynitrite radicals [3]: strong
- antioxidant activity against peroxynitrite radicals (known) [4]: strong

Compound: vitamin E
- antioxidant activity against hydroxyl radicals (known) [1]: strong
